Source: US20100041597A1, “PEPTIDES TARGETED TO PROTEIN KINASE C ISOFORMS AND USES THEREOF” (priority 2005, published 2010)

How the values were obtained:
PKC-α = PKC-α (Homo sapiens, UniProt P17252); experiment: ELISA-based competitive binding assay with purified PKC isoform; design: key to Affinity for PKC isoform α: —: no detectable affinity; Low to very low affinity at 10X or 20X or both PRE concentrations in at least one cell line in the cell extract assay; Low affinity in purified isoform assay.; Moderate affinity at 10X or 20X or both PRE concentrations in at least one cell line in the cell extract assay.; High affinity at 10X or 20X or both PRE concentrations in at least one cell line in the cell extract assay; High affinity in purified isoform assay; conditions: for inhibition at 50 µM / inhibition at 100 µM / inhibition at 200 µM / calculated binding capacity (100-% n) after subtraction of the DMSO apparent binding capacity: purified PKC-α; for inhibition at 50 µM / inhibition at 100 µM / inhibition at 200 µM: read-out: calculated binding capacity (100-% n) after subtraction of the DMSO apparent binding capacity; for Affinity for PKC isoform α: Purified isoform, Table 20; for targeting of PKC-α: purified isoform, Tables 14-19; for isoform specificity: purified isoforms α, βI, βII, δ, ε, ζ compared
Procedure: Peptides PRE 1, 2, 3, 4, 5, 6, 7, 8, 9, 10, 11, 12 and 13 (see Table 3) were tested for their ability to interfere with binding of PKC isoform-specific antibodies to their target PKC isoforms using a competitive binding assay and purified PKC isoforms.
Procedure: Competitive binding was assessed using a 96 well plate ELISA-based assay as described below.
Greiner 96 well ELISA plates were coated with the appropriate PKC isoform diluted in PBSN (PBS with Calcium/Magnesium+0.05% Sodium azide w/w). 50 μL/well at 250 ng/mL was used. Control wells contained PBSN only. Plates were incubated overnight at 4° C.
The plates were washed 3 times with 200 μL of dH2O per well, then 100 μL of blocking solution was added per well and the plate incubated for 1 h at 37° C. The washing steps with dH2O were repeated and 50 μL of the appropriate PRE solution (PRE stock solution [20 mM in DMSO] diluted in PBSN) was added and the plate incubated for 1 h at room temperature.
After incubation, 5 μL of 1.1:400 anti-PKC (isoform specific antibody) was added per well (to provide a final concentration of 1:4000). For PKC-epsilon, 1.1:800 dilution was used and for PKC-zeta a 1.1:100 dilution was used due to high and low binding affinity, respectively. The plates were then incubated 1 h at room temperature, followed by washing with dH2O as described above.
50 μL of 1:1000 dilution of Alkaline Phosphatase (AP) conjugated antibody (anti-rabbit for all except zeta, which was anti-goat) was then added and the plate incubated for 1 h at room temperature. Washing with dH2O was then repeated. Finally, 100 μL of pNPP solution in pNPP buffer (2 mM MgCl2, 100 mM Sodium bicarbonate in water, pH 9.8) was added to all wells and incubated for 8 minutes for α, βI, βII ε, and ζ, or for 15-20 mins for […] (until sufficient coloration is observed). The reaction was stopped by addition of Stop solution (2N NaOH) and the absorbance at 405 nm was read on a Galaxy Plate reader.
Controls were PKC without PRE; blank controls, and controls containing the final concentrations of DMSO used for solubilizing the PREs. The non-specific binding capacity related to DMSO was also measured.
The antibodies used were as follows: anti-PKC α (Cat. No. SC-208); anti-PKC βI (Cat. No. SC-209); anti-PKC βII (Cat. No. SC-210); anti-PKC δ (Cat. No. SC-213); anti-PKC ε (Cat. No. SC-214); anti-PKC ζ (Cat. No. SC-216-G) (all from Santa Cruz Biotechnology, Inc.). The AP-conjugated antibodies were obtained from Jackson Immuno Research Laboratories (West Grove, Pa.).
Calculations: The OD values measured at 405 nm represent the free PKC coated per well.
OD405 PKC alone−Blank OD405 of each sample=OD405 coated isoform
(OD405 of sample X/OD405 coated isoform)×100=% n that represents the percentage of X binding compared to control.
100-% n measures the relative binding capacity of X towards the tested isoform.
The apparent binding capacity of the DMSO samples was then subtracted from X binding capacity.
All measurements were made in triplicate and the values in the table represent the averaged calculated binding capacity values after subtraction of the DMSO apparent binding capacity (averaged from 12 values, respectively 10.80, 11.20 and 16.40 corresponding to the concentrations of DMSO used to dilute the […] at 200, 100 and 50 μM respectively). The results allow for quantitative comparison of the binding capacity of each PRE towards an individual isoform within each table, but not among isoforms due to differences in sensitivity of the specific antibodies toward the secondary antibody. This applies particularly to PKC-delta. As noted above, the colour development duration was increased 2-3 times and, as a result, the OD405 measurements may be overestimated for this isoform.

PKC-βII = experiment: Competitive binding assay using cell extracts (Western blot); design: species or system human; key: —: no detectable affinity; Low to very low affinity at 10X or 20X or both PRE concentrations in at least one cell line in the cell extract assay; Low affinity in purified isoform assay.; Moderate affinity at 10X or 20X or both PRE concentrations in at least one cell line in the cell extract assay.; High affinity at 10X or 20X or both PRE concentrations in at least one cell line in the cell extract assay; High affinity in purified isoform assay; conditions: Cell extract; PRE at 10X, 20X antibody concentration; Table 20
Procedure: Binding efficiency and specificity of the peptides PRE 2, 3, 4, 5, 6, 7, 8, 9, 10, 11, 12 and 13 (see Table 3) was also tested using cytoplasmic extracts from different cell lines expressing appropriate PKC isoforms as described for Example 1. Briefly, the protein cytoplasmic extracts were separated by electrophoresis and transferred onto nitrocellulose membranes by standard Western blotting procedures. The bands on the Western blots were detected with matching primary antibodies and alkaline phosphatase conjugated secondary antibody. The bands were then scanned and the relative density measurements obtained.
This procedure to assess the binding characteristics of the PREs is based on competition binding of the PRE with the primary anti-isoform PKC specific antibodies. The lower the measured band density, the greater the binding of the PRE to the PKC isoform. The PREs were added at 10 and 20 times (10×, 20×) the primary antibody concentration, according to classical competition between antigenic peptide and primary antibody. The following cell lines (obtained from the ATCC) were used: H661—NCI human lung carcinoma NSCLC; MDAMB231—human highly invasive breast cancer cell line from pleural effusion; LS180—human colon adenocarcinoma; LnCAP—human prostate adenocarcinoma; CCD16Lu—human lung fibroblasts; Du145—human prostate carcinoma brain metastasis, and T24—human bladder carcinoma.
In these cases, the 20× band density figures relative to control and 10× values were reliable.

Ac-AKGIQEVKGGDAQNLIGISI-NH2 [PRE 3]
inhibition at 50 µM (PKC-α; PRE 50 μM): 17.5%
inhibition at 100 µM (PKC-α; PRE 100 μM): 26.5%
inhibition at 200 µM (PKC-α; PRE 200 μM): 22.6%
Affinity for PKC isoform α (PKC-α): H
targeting of PKC-α (PKC-α): targeted most strongly
isoform specificity (PKC-α): “universal” PKC targeting peptide, with the exception of the PKC-βII isoform
Affinity for PKC isoform βII (PKC-βII): L

Ac-AKGIQEVKGGKDAQNLIGISI-NH2 [PRE 5]
inhibition at 50 µM (PKC-α; PRE 50 μM): 0%
inhibition at 100 µM (PKC-α; PRE 100 μM): 0%
inhibition at 200 µM (PKC-α; PRE 200 μM): 0%
Affinity for PKC isoform α (PKC-α): —
Affinity for PKC isoform βII (PKC-βII): H

Ac-ISIGILNQADK-NH2 [PRE 10]
Affinity for PKC isoform α (PKC-α): —
Affinity for PKC isoform βII (PKC-βII): —

Ac-ISIGILQNADK-NH2 [PRE 7]
Affinity for PKC isoform α (PKC-α): L

Ac-KDANQLIGISI-NH2 [PRE 6]
Affinity for PKC isoform α (PKC-α): —

Ac-KDAQNLI-NH2 [PRE 12]
Affinity for PKC isoform α (PKC-α): —
Affinity for PKC isoform βII (PKC-βII): L

Ac-KDAQNLIGISI-NH2 [PRE 4, Ac-KDAQNLIGISI-NH2]
inhibition at 50 µM (PKC-α; PRE 50 μM): 6.46%
inhibition at 100 µM (PKC-α; PRE 100 μM): 21.9%
inhibition at 200 µM (PKC-α; PRE 200 μM): 22.8%
Affinity for PKC isoform α (PKC-α): H
targeting of PKC-α (PKC-α): targeted most strongly
isoform specificity (PKC-α): specificity for PKC-A
Affinity for PKC isoform βII (PKC-βII): L

Ac-RDAQNLI-NH2 [PRE 13]
Affinity for PKC isoform α (PKC-α): —

Ac-RDAQNLIGISI-NH2 [PRE 11]
Affinity for PKC isoform α (PKC-α): L

Ac-isigilgnadk-NH2 [PRE 9]
calculated binding capacity (100-% n) after subtraction of the DMSO apparent binding capacity (PKC-α; PRE 100 μM): 5.35
Affinity for PKC isoform α (PKC-α): —
Affinity for PKC isoform βII (PKC-βII): —

ILEDKGGDAQNLIGISI [PRE 8]
Affinity for PKC isoform α (PKC-α): —
Affinity for PKC isoform βII (PKC-βII): H

RRKKGGKDFVVKR [PRE 1]
calculated binding capacity (100-% n) after subtraction of the DMSO apparent binding capacity (PKC-α; PRE 50 μM): 0.69
calculated binding capacity (100-% n) after subtraction of the DMSO apparent binding capacity (PKC-α; PRE 200 μM): 2.10
Affinity for PKC isoform α (PKC-α): —
